From patent US20090196854A1, “METHODS AND COMPOSITIONS FOR USE OF CRL 5803 CELLS FOR EXPRESSION OF BIOTHERAPEUTICS AND ENCAPSULATED CELL-BASED DELIVERY” (priority 2008, published 2009)
Read-outs that look alike come from different tables or passages of the source.

Columns and labels:
HT1080 cells (CD clone) = assay: 5FC sensitivity of cells expressing WT CD gene; type: cell-based, human
Text: HT1080 cells and CD Expression, The HT1080 cell line was obtained from the ATCC and transfected with the WT CD gene of the present invention. A clone was isolated that had high expression of immunoreactive CD. […] This represents toxicity at about 100-fold lower concentrations of 5FC than achieved by others with HT1080 cells (Dachs, et al., Nature Medicine 3:515-20, 1997).

[1] = system: human kidney cells 293 cells; assay: 5FC sensitivity of cells expressing WT-CD transgene; type: cell-based; details: HEK293, 293 cells expressing WT-CD transgene
human colon tumor cells = assay: as above; type: cell-based
CRL5816 cells = assay: as above; type: cell-based; details: Homo sapiens
ARPE-19 cells = assay: 5FC sensitivity of cells transfected with CD gene; type: cell-based, human; details: ARPE-19 transfected with CD gene
Text: ARPE-19 and CD Expression. […] The purpose of the screen was to eliminate 5FU-resistant cells with the expectation that it would be difficult to use CD as a kill system in such cells. We conclude that lack of cytotoxicity with CD transgene and 5FC treatment in these cells is, at least in part, due to the insensitivity of these cells to 5FU cytotoxicity. The 5-FC and CD cell suicide safety system may not readily be an effective safety system with ARPE-19 cells.

K3.31 = assay: 5FC and 5FU dose-response in BDNF-expressing CRL 5803 line and CD transfectants; type: cell-based; details: Homo sapiens; K3.31 transfected with CD gene; read-out: 5FC IC50
Experimental: (§1) CRL 5803 cells expressing BDNF and CD: The CRL 5803 cell line was transfected with BDNF and clones expressing BDNF were selected. These selected clones were expanded to provide cells for transfections with cytosine deaminase plasmid (CX014). Four CD gene transfection studies were performed with three different BDNF-expressing cell lines. For each cell line at least 24 resistant clones were picked and screened for sensitivity to 100 μM 5FC. The clones with the lowest survival in 5FC (as percent of control wells) were then expanded for dose-response studies with 5FC and 5FU. Cytotoxicity of 5FC was used as an indication of CD gene expression, and this screen provided 6-9 clones per transfection. The IC50 for 5FU indicated the maximum potential cytotoxicity of the prodrug, 5FC, in cells expressing sufficient levels of CD gene and protein.

K3.3 = assay: as above; type: cell-based; details: Homo sapiens; K3.3 transfected with CD gene; read-out: 5FC IC50
Experimental: as §1

K3.4 = assay: as above; type: cell-based; details: Homo sapiens, read-out: 5FC IC50
Experimental: as §1

ARPE-19 = type: cell-based, human
Experimental: (§2) The cell lines were plated in 48 well plates at an appropriate dilution of cells for each cell line to provide for rapid entry into log phase of growth. The various concentrations of the selection drugs were added so that the drugs were present at the initiation of log phase growth and viable cells were determined after 7-10 days of culture. The screening used data for functional mass at the end of the study to express viable cells as a percentage of the vehicle, or no-treatment control wells. […] The % viable cell mass data was plotted, and fitted typically with a four-parameter equation. The fitted equation was used to calculate the IC50 dose. The drugs tested were G418 (inactivated by neomycin phophotransferase, NPT), hygromycin (inactivated by hygromycin phosphotansferse, HPT), blasticidin (inactivated by blasticidin deaminase, BSD), and zeocin (bound by bleomycin binding protein, BBP). These antibiotics were obtained from Invitrogen/Gibco (Invitrogen SA, Barcelona).
(§3) The drugs, G418, Zeocin, hygromycin, and blasticidin were obtained and used as described earlier. The most important aspect of these studies was to identify the concentration needed to kill all non-transfected cells.

CCL205 = type: cell-based, human
Experimental: as §2, §3

CRL1440 = type: cell-based, human
Experimental: as §2, §3

CRL5803 = type: cell-based, human
Experimental: as §2, §3

ARPE-19 polyclone = assay: Zeocin dose-response of growth in BBP-transfected polyclones; type: cell-based, human
CCL205 polyclone = details: CMV promoter polyclone
Experimental: (§4) In an effort to address this issue we used plasmids we had constructed that used either of three viral promoter/enhancers: CMV, SV40, or RSV. These viral regulatory elements were used to direct the expression of the selectable marker for Zeocin, a bleomycin binding protein (BBP) that inactivates the drug by binding, rather than enzymatic degradation. The resistant colonies produced by these transfections were grown as polyclones for each different promoter.
The growth of CCL205 cells was slow enough that for IC50 calculations the final viable mass was used rather than growth.

CRL1440 polyclones = assay: Zeocin dose-response of growth in BBP-transfected polyclones
Experimental: as §4
Polyclones were expanded in 300 μg/ml Zeocin for SV40 and CMV promoter plasmids, and then plated to determine IC50s for growth at varied Zeocin doses.

Experimental for CRL 5803 polyclones: as §4

Nc1nc(=O)[nH]cc1F [5FC, 5-fluorocytosine]
IC50 (HT1080 cells (CD clone); Homo sapiens, HT-1080, HT1080 clone with high expression of immunoreactive CD, dominantly growth arrest): 110 µM | fold lower toxic concentration of 5FC than achieved by others with HT1080 cells (HT1080 cells (CD clone); versus Dachs et al. 1997): about 100 fold | IC50 [1]: 55 µM | IC50 (human colon tumor cells): 45 µM | IC50 (CRL5816 cells): 48 µM | sensitivity of CD-transfected clones to 5FC (ARPE-19 cells): unable to isolate clones that were sensitive to 5FC | IC50 (K3.31): 21 ± 2 µM | IC50 (K3.3): 14 ± 2 µM | IC50 (K3.4; independent second transfection with the CD gene): 67 ± 8 µM | IC50 (K3.4; one of the transfections with the CD gene): 79 ± 9 µM

Cc1c(N)nc([C@H](CC(N)=O)NC[C@H](N)C(N)=O)nc1C(=O)N[C@H](C(=O)N[C@H](C)[C@@H](O)[C@H](C)C(=O)N[C@H](C(=O)NCCC1=N[C@@H](c2nc(C(=O)NCCCCN=C(N)N)cs2)CS1)[C@@H](C)O)[C@@H](O[C@@H]1O[C@@H](CO)[C@@H](O)[C@H](O)[C@@H]1O[C@H]1O[C@H](CO)[C@@H](O)[C@H](OC(N)=O)[C@@H]1O)c1cnc[nH]1 [Zeocin]
concentration found to kill non-transfected cells (ARPE-19): 50 µg/mL | concentration found to kill non-transfected cells (CCL205): <20 µg/mL | concentration found to kill non-transfected cells (CRL1440): 100 µg/mL | concentration found to kill non-transfected cells (CRL5803): 500 µg/mL | shift in resistance compared to cells with no Zeocin-resistance gene (ARPE-19 polyclone; CMV promoter): ~8 fold | IC50 for growth in Zeocin (ARPE-19 polyclone; CMV promoter-BBP polyclone): 399 µg/mL | growth IC50 in Zeocin (CRL 5803 polyclones; CRL 5803, CMV promoter-BBP): 2700 µg/mL | growth IC50 in Zeocin (CRL 5803 polyclones; CRL 5803, RSV promoter-BBP): 2400 µg/mL | growth IC50 in Zeocin (CRL 5803 polyclones; CRL 5803, SV40 promoter plasmid): 2800 µg/mL | increase in the growth IC50 (CRL 5803 polyclones; CRL 5803, all promoters): ~5 fold | doses at which cytotoxicity was evident (CRL 5803 polyclones; CRL 5803 CMV promoter polyclone, dose range extended to 5000 μg/ml): > 3000 µg/mL | IC50 for Zeocin (final viable mass) (CCL205 polyclone): 27 µg/mL | IC50 for growth in Zeocin (CRL1440 polyclones; CMV plasmids): 2395 µg/mL | IC50 for growth in Zeocin (CRL1440 polyclones; SV40 promoter plasmid): 959 µg/mL
